From patent publication US7342012B2, “Inhibitors of αLβ2 mediated cell adhesion” (Mitsubishi Tanabe Pharma Corporation, priority 1999, dated 2008)

Compound | melting point
O=C(c1ccc(Cl)c(Cl)c1)N1C(=O)N2CCCC2(Cc2ccc(Br)cc2)C1=O (stereo not drawn) [Example 109, 5-(4-Bromobenzyl)-3-(3,4-dichlorobenzoyl)-1,3-diazabicyclo[3.3.0]octane-2,4-dione] | 158 °C
CC(C)(C)OC(=O)c1c(Cl)cc(N2C(=O)N3CCCC3(Cc3ccc(Br)cc3)C2=O)cc1Cl (stereo not drawn) [Example 225, 5-(4-Bromobenzyl)-3-[3,5-dichloro-4-(t-butoxycarbonyl)phenyl]-1,3-diazabicyclo[3.3.0]octane-2,4-dione] | 109 to 110 °C
COC(=O)c1ccc(CC23CCCN2C(=O)N(c2cc(Cl)c(O)c(Cl)c2)C3=O)cc1 (stereo not drawn) [Example 142, 5-(4-Methoxycarbonylbenzyl)-3-(3,5-dichloro-4-hydroxyphenyl)-1,3-diazabicyclo[3.3.0]octane-2,4-dione] | 105.3 °C
CC(=O)c1cccc(N2C(=O)N3CCCC3(Cc3ccc(Br)cc3)C2=O)c1 (stereo not drawn) [Example 237] | 120.4 °C
CC(C)(C)OC(=O)CN1CCN2C(=O)N(c3cc(Cl)cc(Cl)c3)C(=O)C2(Cc2ccc(Br)cc2)C1 (stereo not drawn) [Example 30, 4-(tert-Butoxycarbonylmethyl)-6-(4-bromobenzyl)-8-(3,5-dichlorophenyl)-1,4,8-triazabicyclo[4.3.0]nonane-7,9-dione] | 74.7 °C
O=C1CN2C(=O)N(c3cc(Cl)nc(Cl)c3)C(=O)[C@@]2(Cc2ccc(OC(F)(F)F)cc2)C1 [Example 70, (5R)-5-[4-(Trifluoromethoxy)benzyl]-3-(2,6-dichloro-4-pyridyl)-7-oxo-1,3-diazabicyclo[3.3.0]octane-2,4-dione] | 166 °C
N#Cc1ccc(CC23CCCN2C(=O)N(c2cc(Cl)cc(Cl)c2N)C3=O)cc1 (stereo not drawn) [Example 240, 5-(4-Cyanobenzyl)-3-(2-amino-3,5-dichlorophenyl)-1,3-diazabicyclo[3.3.0]octane-2,4-dione] | 122.2 °C
N#Cc1ccc(CC23CCCN2C(=O)N(c2cc(Cl)nc(Cl)c2)C3=O)cc1 (stereo not drawn) [Example 130, 5-(4-Cyanobenzyl)-3-(2,6-dichloro-4-pyridyl)-1,3-diazabicyclo[3.3.0]octane-2,4-dione] | 96 °C
N[C@@H]1CN2C(=O)N(c3cc(Cl)nc(Cl)c3)C(=O)[C@@]2(Cc2ccc(OC(F)(F)F)cc2)C1 [Example 63, (5R,7S)-5-[4-(Trifluoromethoxy)benzyl]-3-(2,6-dichloro-4-pyridyl)-7-amino-1,3-diazabicyclo[3.3.0]octane-2,4-dione] | 150.6 °C
N[C@@H]1CN2C(=O)N(c3cc(Cl)cc(Cl)c3)C(=O)[C@@]2(Cc2ccc(OC(F)(F)F)cc2)C1 [Example 300, (5R, 7S)-5-[4-(Trifluoromethoxy)benzyl]-3-(3,5-dichlorophenyl)-7-amino-1,3-diazabicyclo[3.3.0]octane-2,4-dione] | 43.3 °C
COc1c(Cl)cc(N2C(=O)N3CCCC3(Cc3ccc(C#N)cc3)C2=O)cc1Cl (stereo not drawn) [Example 139, 5-(4-Cyanobenzyl)-3-(3,5-dichloro-4-methoxyphenyl)-1,3-diazabicyclo[3.3.0]octane-2,4-dione] | 95.1 °C
CS(=O)(=O)N[C@@H]1CN2C(=O)N(c3cc(Cl)nc(Cl)c3)C(=O)[C@@]2(Cc2ccc(OC(F)(F)F)cc2)C1 [Example 254, (5R, 7S)-5-[4-(Trifluoromethoxy)benzyl]-3-(2,6-dichloro-4-pyridyl)-7-methanesulfonylamino-1,3-diazabicyclo[3.3.0]octane-2,4-dione] | 207.2 °C
O=C1N(c2cc(Cl)nc(Cl)c2)C(=O)C2(Cc3ccc(O)cc3)CCCN12 (stereo not drawn) [Example 196, 5-(4-Hydroxybenzyl)-3-(2,6-dichloro-4-pyridyl)-1,3-diazabicyclo[3.3.0]octane-2,4-dione] | 164.9 °C
O=C1N(c2cc(Cl)nc(Cl)c2)C(=O)C2(Cc3ccc(Br)cc3)CCCNN12 (stereo not drawn) [Example 100, 6-(4-Bromobenzyl)-8-(2,6-dichloro-4-pyridyl)-1,2,8-triazabicyclo[4.3.0] nonan-7,9-dione] | 190 °C (dec.)
Nc1ccc(-c2ccc(CC34CCCN3C(=O)N(c3cc(Cl)cc(Cl)c3)C4=O)cc2)cc1 (stereo not drawn) [Example 115, 5-[4-(4-Aminophenyl)benzyl]-3-(3,5-dichlorophenyl)-1,3-diazabicyclo[3.3.0]octane-2,4-dione] | 278 °C (dec.)
NC(=O)C(N)CC(=O)N[C@@H]1CN2C(=O)N(c3cc(Cl)nc(Cl)c3)C(=O)[C@@]2(Cc2ccc(OC(F)(F)F)cc2)C1 (stereo partly drawn) [Example 255, (5R, 7S)-5-[4-(Trifluoromethoxy)benzyl]-3-(2,6-dichloro-4-pyridyl)-7-[(3-carbamoyl-3-aminopropanoyl)amino]-1,3-diazabicyclo[3.3.0]octane-2,4-dione] | 107.8 °C
CNC(=O)C1CN2C(=O)N(c3cc(Cl)cc(Cl)c3)C(=O)C2(Cc2ccc(OC(F)(F)F)cc2)C1 (stereo not drawn) [Example 319] | 122.7 °C
O=C1N(c2cc(Cl)c(OCc3ccccc3)c(Cl)c2)C(=O)C2(Cc3ccc(Br)cc3)CCCN12 (stereo not drawn) [Example 138, 5-(4-Bromobenzyl)-3-[3,5-dichloro-4-(benzyloxy)phenyl]-1,3-diazabicyclo[3.3.0]octane-2,4-dione] | 62 °C
N#Cc1ccc(C(F)(F)C23CCCN2C(=O)N(c2cc(Cl)cc(Cl)c2)C3=O)cc1 (stereo not drawn) [Example 113, 5-(4-Cyano-α,α-difluorobenzyl)-3-(3,5-dichlorophenyl)-1,3-diazabicyclo[3.3.0]octane-2,4-dione] | 66 °C
N#Cc1ccc(CC23CCNN2C(=O)N(c2cc(Cl)nc(Cl)c2)C3=O)cc1 (stereo not drawn) [Example 57, 5-(4-Cyanobenzyl)-3-(2,6-dichloro-4-pyridyl)-1,3,8-triazabicyclo [3.3.0]octane-2,4-dione] | 187 °C
O=C(Nc1ccccc1)Nc1cccc(-c2ccc(CC34CCCN3C(=O)N(c3cc(Cl)cc(Cl)c3)C4=O)cc2)c1 (stereo not drawn) [Example 126, 5-[4-[3-(Phenylureido)phenyl]benzyl]-3-(3,5-dichlorophenyl)-1,3-diazabicyclo[3.3.0]octane-2,4-dione] | 150.2 °C
O=C1N(c2cccc(C(F)(F)F)c2)C(=O)C2(Cc3ccc(Br)cc3)CCCN12 (stereo not drawn) [Example 233] | 82.6 °C
O=C1N(c2cc(Cl)cc(Cl)c2)C(=O)C2(Cc3ccc(OC(F)(F)F)cc3)C[C@@H](O)CN12 (stereo in doubt) [Example 268, (5R, 7R)-5-[4-(Trifluoromethoxy)benzyl]-3-(3,5-dichlorophenyl)-7-hydroxy-1,3-diazabicyclo[3.3.0]octane-2,4-dione] | 50.4 °C
NCC(=O)N[C@@H]1CN2C(=O)N(c3cc(Cl)nc(Cl)c3)C(=O)[C@@]2(Cc2ccc(OC(F)(F)F)cc2)C1 [Example 252, (5R, 7S)-5-[4-(Trifluoromethoxy)benzyl]-3-(2,6-dichloro-4-pyridyl)-7-aminoacetylamino-1,3-diazabicyclo[3.3.0]octane-2,4-dione] | 114 °C

Now from value to compound:

melting point | Compound
122.7 °C | NC(=O)[C@H]1CN2C(=O)N(c3cc(Cl)cc(Cl)c3)C(=O)[C@]2(Cc2ccc(OC(F)(F)F)cc2)C1 [Example 312, (5R, 7R)-5-[4-(Trifluoromethoxy)benzyl]-3-(3,5-dichlorophenyl)-7-carbamoyl-1,3-diazabicyclo[3.3.0]octane-2,4-dione]
88.3 °C | O=C1N(c2cc(Cl)cc(Cl)c2)C(=O)[C@]2(Cc3ccc(Br)cc3)C[C@H](O)CN12 [Example 5, (5S,7S)-5-(4-Bromobenzyl)-3-(3,5-dichlorophenyl)-7-hydroxy-1,3-diazabicyclo[3.3.0]octane-2,4-dione]
101.5 °C | O=C(O)CC1=CC2(Cc3ccc(Br)cc3)C(=O)N(c3cc(Cl)cc(Cl)c3)C(=O)N2C1 (stereo not drawn) [Example 37, 5-(4-Bromobenzyl)-3-(3,5-dichlorophenyl)-7-carboxymethyl-1,3-diazabicyclo[3.3.0]oct-6-ene-2,4-dione]
58.9 °C | [N-]=[N+]=N[C@@H]1CN2C(=O)N(c3cc(Cl)cc(Cl)c3)C(=O)[C@]2(Cc2ccc(Br)cc2)C1 [Example 3, (5S,7S)-5-(4-Bromobenzyl)-3-(3,5-dichlorophenyl)-7-azido-1,3-diazabicyclo[3.3.0]octane-2,4-dione]
54 °C | CN(C)[C@@H]1CN2C(=O)N(c3cc(Cl)cc(Cl)c3)C(=O)[C@@]2(Cc2ccc(Br)cc2)C1 [Example 50, (5R,7S)-5-(4-Bromobenzyl)-3-(3,5-dichlorophenyl)-7-dimethylamino-1,3-diazabicyclo[3.3.0]octane-2,4-dione]
236.5 °C | O=C(O)CN1CCN2C(=O)N(c3cc(Cl)cc(Cl)c3)C(=O)C2(Cc2ccc(Br)cc2)C1 (stereo not drawn) [Example 34, 4-Carboxymethyl-6-(4-bromobenzyl)-8-(3,5-dichlorophenyl)-1,4,8-triazabicyclo[4.3.0]nonane-7,9-dione]
123.9 °C | CC(=O)Nc1ccc(-c2ccc(CC34CCCN3C(=O)N(c3cc(Cl)cc(Cl)c3)C4=O)cc2)cc1 (stereo not drawn) [Example 116, 5-[4-(4-Acetylaminophenyl)benzyl]-3-(3,5-dichlorophenyl)-1,3-diazabicyclo[3.3.0]octane-2,4-dione]
73.5 °C | CN(C)CC(=O)N1CCN2C(=O)N(c3cc(Cl)cc(Cl)c3)C(=O)C2(Cc2ccc(Br)cc2)C1 (stereo not drawn) [Example 31, 4-[(Dimethylamino)acetyl]-6-(4-bromobenzyl)-8-(3,5-dichlorophenyl)-1,4,8-triazabicyclo[4.3.0]nonane-7,9-dione]
61.2 °C | CC(=O)N[C@@H]1CN2C(=O)N(c3cc(Cl)cc(Cl)c3)C(=O)[C@]2(Cc2ccc(OC(F)(F)F)cc2)C1 [Example 291]
172 °C | NC(=O)C[C@H](NC(=O)c1c(Cl)cc(N2C(=O)N3CCCC3(Cc3ccc(Br)cc3)C2=O)cc1Cl)C(=O)O (stereo partly drawn) [Example 229, 5-(4-Bromobenzyl)-3-(3,5-dichloro-4-L-asparaginocarbonylphenyl)-1,3-diazabicyclo[3.3.0]octane-2,4-dione]
221 °C | CN1CCN2C(=O)N(c3cc(Cl)cc(Cl)c3)C(=O)C2(Cc2ccc(Br)cc2)C1 (stereo not drawn) [Example 29, 4-Methyl-6-(4-bromobenzyl)-8-(3,5-dichloro-phenyl)-1,4,8-triazabicyclo[4.3.0]nonane-7,9-dione]
140.3 °C | NC(=O)C1CN2C(=O)N(c3cc(Cl)cc(Cl)c3)C(=O)C2(Cc2ccc(OC(F)(F)F)cc2)C1 (stereo not drawn) [Example 317]
